Reference: PubChem BioAssay AID330 (DTP/NCI, 2004)
Values joined by “and” are separate entries in the source; they are usually repeats but may differ in a detail not shown here. Equal entries are not always repeated. Inconclusive results and toxic doses are left out. The calls were made as follows: active = survival T/C of 150% or more; inactive = T/C below 125% in these data.

System: P388 leukemia ip, CD2F1 mice, survival T/C
Experiment: NCI In Vivo Anticancer Drug Screen. Data for tumor model P388 Leukemia (intraperitoneal) in CD2F1 (CDF1) mice
Conditions: endpoint: median survival time, higher = longer survival
Method in brief: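 Mice carrying the transplanted tumor received test compound or vehicle. Survival was recorded in each group, and the value is the treated-group measurement divided by that of the vehicle-treated control group.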

[1] = dose: 100.0 mg/kg/injection, schedule: Q01DX001 (ip), vehicle: saline with Tween-80
[2] = dose: 200.0 mg/kg/injection, schedule: Q01DX001 (ip), vehicle: saline with Tween-80
[3] = dose: 60.0 mg/kg/injection, schedule: Q01DX005 (ip), vehicle: saline with Tween-80
[4] = dose: 120.0 mg/kg/injection, schedule: Q01DX005 (ip), vehicle: saline with Tween-80
[5] = dose: 240.0 mg/kg/injection, schedule: Q01DX005 (ip), vehicle: saline with Tween-80
[6] = dose: 12.5 mg/kg/injection, schedule: Q01DX009 (ip), vehicle: saline with Tween-80
[7] = dose: 25.0 mg/kg/injection, schedule: Q01DX009 (ip), vehicle: saline with Tween-80
[8] = dose: 50.0 mg/kg/injection, schedule: Q01DX009 (ip), vehicle: saline with Tween-80
[9] = dose: 50.0 mg/kg/injection, schedule: Q01DX005 (ip), vehicle: saline with Tween-80
[10] = dose: 100.0 mg/kg/injection, schedule: Q01DX009 (ip), vehicle: saline with Tween-80

Measured: T/C

CCCc1nc2c(=O)[nH]cnc2o1
inactive: dose: 50.0 mg/kg/injection, schedule: Q01DX001 (ip), vehicle: saline with Tween-80 100 % of control | [1] 100 % of control | [2] 100 % of control

O=C(Nc1ccc(C2=NCCN2)cc1)c1cc2ccc(C3=NCCN3)cc2o1
inactive: dose: 100.0 mg/kg/injection, schedule: Q04DX003 (ip), vehicle: suspension in saline 104 % of control | dose: 200.0 mg/kg/injection, schedule: Q04DX003 (ip), vehicle: suspension in saline 119 % of control

Cc1ccc(OP(=O)(Oc2ccc(C)cc2)Oc2ccc(C)cc2)cc1.Cc1ccc(OP(=O)(Oc2ccc(C)cc2)Oc2ccc(C)cc2)cc1.[Cl][Cr]([Cl])[Cl]
inactive: dose: 100.0 mg/kg/injection, schedule: Q01DX001 (ip), vehicle: Klucel (hydroxypropylcellulose) (HPC) 100 % of control | dose: 200.0 mg/kg/injection, schedule: Q01DX001 (ip), vehicle: Klucel (hydroxypropylcellulose) (HPC) 95 % of control | dose: 400.0 mg/kg/injection, schedule: Q01DX001 (ip), vehicle: Klucel (hydroxypropylcellulose) (HPC) 99 % of control

COc1ccc(C2C3CCCC(C(c4ccc(OC)cc4)N2C)C32NC(=O)NC2=O)cc1 (centres undefined)
inactive: [3] 90 % of control | [4] 90 % of control | [5] 91 % of control

COc1ccc([I+]c2ccc(OC)cc2)cc1
inactive: dose: 3.0 mg/kg/injection, schedule: Q01DX009 (ip), vehicle: saline with Tween-80 104 % of control | dose: 6.0 mg/kg/injection, schedule: Q01DX009 (ip), vehicle: saline with Tween-80 120 % of control

CCCNCC(O)c1cc(C(F)(F)F)nc2c(C(F)(F)F)cccc12 (centres undefined)
inactive: [6] 99 % of control | [7] 95 % of control | [8] 107 % of control

O=C1OCCCCOC(=O)c2ccccc2SSc2ccccc21
inactive: [1] 90 % of control | [2] 99 % of control | dose: 400.0 mg/kg/injection, schedule: Q01DX001 (ip), vehicle: saline with Tween-80 99 % of control

CCCN1C(=O)CC(NC(C)=O)C1=O (centres undefined)
inactive: [9] 107 % of control | dose: 100.0 mg/kg/injection, schedule: Q01DX005 (ip), vehicle: saline with Tween-80 107 % of control | dose: 200.0 mg/kg/injection, schedule: Q01DX005 (ip), vehicle: saline with Tween-80 107 % of control

O=C1C(Cl)=C(Nc2cccc3ccccc23)C(=O)c2ccccc21
inactive: dose: 6.25 mg/kg/injection, schedule: Q01DX005 (ip), vehicle: saline with Tween-80 104 % of control | dose: 12.5 mg/kg/injection, schedule: Q01DX005 (ip), vehicle: saline with Tween-80 101 % of control | dose: 25.0 mg/kg/injection, schedule: Q01DX005 (ip), vehicle: saline with Tween-80 109 % of control | [9] 108 % of control

C/C=C(\C)C(=O)OC1CC(C)(O)C(=O)C(OC(=O)/C(C)=C/C)C2(C)CCC(O)(C(C)C)C12 (centres undefined)
inactive: [8] 105 % of control | [10] 101 % of control | dose: 200.0 mg/kg/injection, schedule: Q01DX009 (ip), vehicle: saline with Tween-80 100 % of control | dose: 400.0 mg/kg/injection, schedule: Q01DX009 (ip), vehicle: saline with Tween-80 95 % of control

CN(C)/N=C/c1ccc(O)cc1
inactive: dose: 50.0 mg/kg/injection, schedule: Q01DX009 (ip), vehicle: Klucel (hydroxypropylcellulose) (HPC) 118 % of control | dose: 100.0 mg/kg/injection, schedule: Q01DX009 (ip), vehicle: Klucel (hydroxypropylcellulose) (HPC) 100 % of control and 101 % of control | dose: 200.0 mg/kg/injection, schedule: Q01DX009 (ip), vehicle: Klucel (hydroxypropylcellulose) (HPC) 102 % of control and 114 % of control

CCC[CH2][Sn]([CH2]CCC)([CH2]CCC)[CH2]CC[N+](C)(CCO)CCO.CS(=O)(=O)[O-]
inactive: dose: 3.12 mg/kg/injection, schedule: Q01DX009 (ip), vehicle: saline 87 % of control | dose: 6.25 mg/kg/injection, schedule: Q01DX009 (ip), vehicle: saline 91 % of control | dose: 12.5 mg/kg/injection, schedule: Q01DX009 (ip), vehicle: saline 97 % of control | dose: 50.0 mg/kg/injection, schedule: Q01DX009 (ip), vehicle: saline 86 % of control | dose: 100.0 mg/kg/injection, schedule: Q01DX009 (ip), vehicle: saline 95 % of control | dose: 200.0 mg/kg/injection, schedule: Q01DX009 (ip), vehicle: saline 98 % of control

COC(/C=N/O)c1ccccc1 (centres undefined)
inactive: dose: 25.0 mg/kg/injection, schedule: Q04DX003 (ip), vehicle: saline with Tween-80 100 % of control | dose: 25.0 mg/kg/injection, schedule: Q04DX003 (ip), vehicle: saline 109 % of control | dose: 50.0 mg/kg/injection, schedule: Q04DX003 (ip), vehicle: saline with Tween-80 100 % of control and 94 % of control | dose: 50.0 mg/kg/injection, schedule: Q04DX003 (ip), vehicle: saline 101 % of control | dose: 100.0 mg/kg/injection, schedule: Q04DX003 (ip), vehicle: saline with Tween-80 106 % of control and 87 % of control | dose: 100.0 mg/kg/injection, schedule: Q04DX003 (ip), vehicle: saline 101 % of control | dose: 200.0 mg/kg/injection, schedule: Q04DX003 (ip), vehicle: saline 105 % of control

Cc1cccc(C(O)c2cnc(C)n2Cc2ccccc2)c1 (centres undefined)
inactive: dose: 60.0 mg/kg/injection, schedule: Q01DX005 (ip), vehicle: Klucel (hydroxypropylcellulose) (HPC) 101 % of control | dose: 120.0 mg/kg/injection, schedule: Q01DX005 (ip), vehicle: Klucel (hydroxypropylcellulose) (HPC) 109 % of control | dose: 240.0 mg/kg/injection, schedule: Q01DX005 (ip), vehicle: Klucel (hydroxypropylcellulose) (HPC) 100 % of control

C/C(=C\C(=O)c1ccc(F)cc1)N1CCN(c2ccc(F)cc2)CC1
inactive: dose: 50.0 mg/kg/injection, schedule: Q01DX005 (ip), vehicle: other 96 % of control | dose: 100.0 mg/kg/injection, schedule: Q01DX005 (ip), vehicle: other 93 % of control

CC(c1ccccc1)/[N+]([O-])=N\O (centres undefined)
inactive: dose: 3.0 mg/kg/injection, schedule: Q01DX005 (ip), vehicle: Klucel + Tween-80 100 % of control | dose: 6.0 mg/kg/injection, schedule: Q01DX005 (ip), vehicle: Klucel + Tween-80 90 % of control | dose: 12.0 mg/kg/injection, schedule: Q01DX005 (ip), vehicle: Klucel + Tween-80 97 % of control | dose: 24.0 mg/kg/injection, schedule: Q01DX005 (ip), vehicle: Klucel + Tween-80 98 % of control

CCOC(=O)c1cc2nc3ccccn3c(=O)c2cc1N
inactive: [6] 105 % of control and 93 % of control | [7] 87 % of control and 90 % of control | [8] 92 % of control | [10] 86 % of control and 96 % of control

COC(=O)c1nnn(-c2ccc(C)c(C)c2)c1C(=O)c1ccccc1
inactive: [3] 99 % of control | [4] 109 % of control

O=C1NC2Cc3ccccc3C(C2)O1 (centres undefined)
inactive: [3] 101 % of control | [4] 100 % of control | [5] 93 % of control
